Test results published in paper PMC10282898 (Organic & Biomolecular Chemistry, 2023).

What was measured:
hCDA = hCDA (Homo sapiens, UniProt P32320); experiment: Quantitative evaluation of hCDA inhibitors; assay type: biochemical
A3 enzymes = conditions: cited from earlier work

hCDA, sequence (P32320 whole entry): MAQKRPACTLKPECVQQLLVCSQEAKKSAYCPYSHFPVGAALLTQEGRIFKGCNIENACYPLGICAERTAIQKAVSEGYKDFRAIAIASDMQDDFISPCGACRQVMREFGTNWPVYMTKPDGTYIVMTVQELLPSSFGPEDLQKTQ

| Ki (hCDA; hCDA 27 nM, dC substrate, pH 7.4, 25 °C, competitive inhibition assumed) [nM] | Km/Ki (hCDA; hCDA, Km of dC over Ki of inhibitor) | SMILES | inhibition of A3 enzymes by free nucleosides (A3 enzymes) |
| --- | --- | --- | --- |
| 430 ± 80 | 512 | O=C1NCC=CCN1[C@H]1C[C@H](O)[C@@H](CO)O1 [dDiAzep, 8, 1,3-diazepin-2-one 2′-deoxyriboside] | – |
| – | – | O=C1NC(O)CCN1[C@@H]1O[C@H](CO)[C@@H](O)[C@H]1O (stereo partly drawn) [THU, tetrahydrouridine] | did not inhibit |
